Key:
[1] = test system: NZ9000Erm strain; assay: Growth inhibition (IC50) of nisin and variants, sensitive strain; format: cell-based, Lactococcus lactis; details: from IC50 values against NZ9000Erm
[2] = test system: NZ9000NisFEG strain; assay: Growth inhibition (IC50) of nisin and variants, NisFEG-expressing strain; format: cell-based, Lactococcus lactis; details: for Fold of immunity mediated by NisFEG: IC50 against NZ9000NisFEG compared with IC50 against NZ9000Erm; for Activity of NisFEG reduced to: fold of immunity for the variant relative to wild-type nisin
Procedure: The NZ9000NisFEG and NZ9000NisFH181AEG strains were grown in GM17 media supplemented with 5 μg/mL chloramphenicol to an OD600 of 0.8. By the addition of nisin (final concentration of 1 ng/mL), the expression was induced and the culture was further grown overnight. After 15 h, the cells were diluted to an OD600 of 0.1 in fresh media supplemented with 5 μg/mL chloramphenicol and with the inducer nisin (10 ng/mL).
The NZ9000, NZ9000NisFEG, and NZ9000NisFH181AEG strains were grown overnight in GM17 media supplemented with 5 μg/mL chloramphenicol in the presence of 1 ng/mL nisin. The diluted cells (final OD600 was 0.1) were incubated with a serial dilution of nisin or its variants with 50 mmol/L lactic acid in a 96 well microtiter plate. The total volume in each well was 200 μL, consisting of 50 μL nisin and 150 μL GM17 containing the corresponding L. lactis strain.
The plate was incubated at 30°C. After 5 h, the optical density was measured at 620 nm via 96-plate reader BMG. The normalized optical density was plotted against the logarithm of the nisin concentration in order to calculate the IC50 of nisin and the data was evaluated using the following equation (1): [drawing 1] 1
The IC50 value is the concentration of nisin were the growth of the L. lactis strain is inhibited by 50% as described in more detail earlier (Abts et al. [2011]).

Row | SMILES | Fold reduction of antimicrobial activity compared to wild-type nisin [1] [fold] | Fold of immunity mediated by NisFEG [2] [fold] | Reduction of NisFEG activity / fold of immunity ([2]; decrease relative to wild-type nisin) [%] | Activity of NisFEG reduced to [2] [%]
1 | C=C1NC(=O)[C@H]([C@@H](C)CC)NC(=O)[C@H](NC(=O)/C(=C/C)NC(=O)[C@@H](N)[C@@H](C)CC)CSC[C@@H](C(=O)N[C@H]2C(=O)N3CCC[C@H]3C(=O)NCC(=O)N[C@H](C(=O)N[C@@H](CCCCN)C(=O)N[C@H]3C(=O)NCC(=O)N[C@@H](C)C(=O)N[C@@H](CC(C)C)C(=O)N[C@@H](CCSC)C(=O)NCC(=O)N[C@H](C(=O)N[C@@H](CC(N)=O)C(=O)N[C@@H](CCSC)C(=O)N[C@@H](CCCCN)C(=O)N[C@H]4C(=O)N[C@@H](C)C(=O)N[C@H]5C(=O)N[C@@H](CS[C@H]4C)C(=O)N[C@@H](Cc4c[nH]cn4)C(=O)N[C@H](C(=O)O)CS[C@H]5C)CS[C@H]3C)CS[C@H]2C)NC(=O)[C@H](CC(C)C)NC1=O [Nisin1-28] | 20 | 3.8 | 50 | 60
2 | C=C1NC(=O)[C@H]([C@@H](C)CC)NC(=O)[C@H](NC(=O)/C(=C/C)NC(=O)[C@@H](N)[C@@H](C)CC)CSC[C@@H](C(=O)N[C@H]2C(=O)N3CCC[C@H]3C(=O)NCC(=O)N[C@H](C(=O)N[C@@H](CCCCN)C(=O)N[C@H]3C(=O)NCC(=O)N[C@@H](C)C(=O)N[C@@H](CC(C)C)C(=O)N[C@@H](CCSC)C(=O)NCC(=O)N[C@H](C(=O)N[C@@H](CC(N)=O)C(=O)N[C@@H](CCSC)C(=O)N[C@@H](CCCCN)C(=O)O)CS[C@H]3C)CS[C@H]2C)NC(=O)[C@H](CC(C)C)NC1=O [Nisin1-22] | 25 | 2.5 | – | 33

Source: paper PMC4234265, “The C-terminus of nisin is important for the ABC transporter NisFEG to confer immunity in Lactococcus lactis” (MicrobiologyOpen, 2014)
